Experimental findings from patent US20250213735A1, “NEUROPEPTIDE Y1 RECEPTOR (NPY1R) TARGETED THERAPEUTICS AND USES THEREOF” (Radionetics Oncology, Inc., priority 2023, published 2025) are described below.

Sequence of hNPY1R (P25929 whole entry): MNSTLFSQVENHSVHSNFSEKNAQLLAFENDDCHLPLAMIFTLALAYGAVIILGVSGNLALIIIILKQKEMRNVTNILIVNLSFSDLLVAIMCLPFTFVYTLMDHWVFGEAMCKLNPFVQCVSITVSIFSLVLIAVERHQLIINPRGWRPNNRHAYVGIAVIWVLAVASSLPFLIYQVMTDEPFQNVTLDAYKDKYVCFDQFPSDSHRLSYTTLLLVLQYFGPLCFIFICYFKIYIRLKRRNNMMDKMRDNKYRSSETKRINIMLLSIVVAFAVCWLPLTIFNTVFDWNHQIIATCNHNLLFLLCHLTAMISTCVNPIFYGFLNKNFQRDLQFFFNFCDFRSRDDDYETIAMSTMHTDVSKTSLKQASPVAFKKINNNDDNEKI

This test concerns the target hNPY1R (Homo sapiens (Human), UniProt P25929). Description: NPY1R binding assay (SK-N-MC membrane, [125I]-Peptide YY competition).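 Further: bound radioligand separated by filtration over GF/C filter plates and counted, Ki obtained by non-linear regression.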 As to conditions: crude SK-N-MC membranes endogenously expressing NPY1R; [125I]-Peptide YY (human) 0.05 nM; 120 min at room temperature; read-out: hNPY1R binding Ki.
Description: Crude membrane fractions are prepared from SK-N-MC cells endogenously expressing the NPY1R receptor. The cells are grown to 85-100% confluence on standard tissue culture dishes in Eagle's Minimum Essential Medium supplemented with 10% dialyzed FBS. To prepare membranes, cells are scraped and collected in 1× Dulbecco's phosphate buffered saline and then pelleted at 1000 RPM's. The cell pellet is reconstituted in membrane preparation buffer (20 mM HEPES, 6 mM MgCl2 and 1 mM EGTA, protease inhibitor tablets, pH 7.4) and placed in a cell disruption vessel at 1000 PSI for 30 minutes on ice. The pressurized contents are then released and spun down at 1000 RPMs and the supernatant is collected and further centrifuged at 15,000 RPMs to pellet the membranes. The membrane pellet is resuspended in membrane preparation buffer, snap frozen and stored at −80° C. for later use.
Assay contents are then filtered through unifilter GF/C microplates and washed with 9×400 μl of cold wash buffer (25 mM HEPES, 5 mM MgCl2, 1 mM CaCl2), 500 mM NaCl, 0.1% Tween-20, pH 7.4). Assay plates are read using a Top Count NXT and Ki values for compounds are determined using a GraphPad Prism 6 non-linear regression analysis.
Regarding `CCC(=O)NCCNC(=O)/N=C(/N)NCCC[C@@H](NC(=O)[C@H](c1ccc(OCCCNC(=O)CCCCCNC(=O)CN2CCN(CC(=O)O)CCN(CC(=O)O)CCN(CC(=O)O)CC2)cc1)N1Cc2ccccc2C1)C(=O)NCc1c(F)cc(O)cc1F` [compound 36, 2,2′,2″-(10-(2-((6-((3-(4-((1S,4R,Z)-9-amino-4-((2,6-difluoro-4-hydroxybenzyl)carbamoyl)-1-(isoindolin-2-yl)-2,11,16-trioxo-3,8,10,12,15-pentaazaoctadec-9-en-1-yl)phenoxy)propyl)amino)-6-oxohexyl)amino)-2-oxoethyl)-1,4,7,10-tetraazacyclododecane-1,4,7-triyl)triacetic acid], the Ki (commonly a measure of affinity in units of concentration, obtained from inhibition or displacement) is under 10 nM. The figure for `CCC(=O)NCCNC(=O)/N=C(/N)NCCC[C@@H](NC(=O)[C@H](c1ccc(OCCCNc2c(NCCCCCCNC(=O)CN3CCN(CC(=O)O)CCN(CC(=O)O)CCN(CC(=O)O)CC3)c(=O)c2=O)cc1)N1Cc2ccccc2C1)C(=O)NCc1c(F)cc(O)cc1F` [compound 37, 2,2′,2″-(10-(2-((6-((2-((3-(4-((1S,4R,Z)-9-amino-4-((2,6-difluoro-4-hydroxybenzyl)carbamoyl)-1-(isoindolin-2-yl)-2,11,16-trioxo-3,8,10,12,15-pentaazaoctadec-9-en-1-yl)phenoxy)propyl)amino)-3,4-dioxocyclobut-1-en-1-yl)amino)hexyl)amino)-2-oxoethyl)-1,4,7,10-tetraazacyclododecane-1,4,7-triyl)triacetic acid] is under 10 nM; for `CCC(=O)NCCNC(=O)/N=C(/N)NCCC[C@@H](NC(=O)[C@H](c1ccc(OCCCNC(=O)C[C@H]2NC(=O)[C@@H](CCCNC(=O)CN3CCN(CC(=O)O)CCN(CC(=O)O)CCN(CC(=O)O)CC3)NC2=O)cc1)N1Cc2ccccc2C1)C(=O)NCc1c(F)cc(O)cc1F` [compound 38, 2,2′,2″-(10-(2-((3-((2R,5R)-5-(2-((3-(4-((1S,4R,Z)-9-amino-4-((2,6-difluoro-4-hydroxybenzyl)carbamoyl)-1-(isoindolin-2-yl)-2,11,16-trioxo-3,8,10,12,15-pentaazaoctadec-9-en-1-yl)phenoxy)propyl)amino)-2-oxoethyl)-3,6-dioxopiperazin-2-yl)propyl)amino)-2-oxoethyl)-1,4,7,10-tetraazacyclododecane-1,4,7-triyl)triacetic acid] it is under 10 nM.

On to `CCC(=O)NCCNC(=O)/N=C(/N)NCCC[C@@H](NC(=O)[C@H](c1ccc(OCCCN2CCN(C(=O)CCCCCNC(=O)CN3CCN(CC(=O)O)CCN(CC(=O)O)CCN(CC(=O)O)CC3)CC2)cc1)N1Cc2ccccc2C1)C(=O)NCc1c(F)cc(O)cc1F` [compound 39, 2,2′,2″-(10-(2-((6-(4-(3-(4-((1S,4R,Z)-9-amino-4-((2,6-difluoro-4-hydroxybenzyl)carbamoyl)-1-(isoindolin-2-yl)-2,11,16-trioxo-3,8,10,12,15-pentaazaoctadec-9-en-1-yl)phenoxy)propyl)piperazin-1-yl)-6-oxohexyl)amino)-2-oxoethyl)-1,4,7,10-tetraazacyclododecane-1,4,7-triyl)triacetic acid], for which the Ki is under 10 nM. Take `CCC(=O)NCCNC(=O)/N=C(/N)NCCC[C@@H](NC(=O)[C@H](c1ccccc1)N1Cc2cccc(NCCCNC(=O)C[C@H]3NC(=O)[C@@H](CCCNC(=O)CN4CCN(CC(=O)O)CCN(CC(=O)O)CCN(CC(=O)O)CC4)NC3=O)c2C1)C(=O)NCc1c(F)cc(O)cc1F` [compound 40, 2,2′,2″-(10-(2-((3-((2R,5R)-5-(2-((3-((2-((1S,4R,Z)-9-amino-4-((2,6-difluoro-4-hydroxybenzyl)carbamoyl)-2,11,16-trioxo-1-phenyl-3,8,10,12,15-pentaazaoctadec-9-en-1-yl)isoindolin-4-yl)amino)propyl)amino)-2-oxoethyl)-3,6-dioxopiperazin-2-yl)propyl)amino)-2-oxoethyl)-1,4,7,10-tetraazacyclododecane-1,4,7-triyl)triacetic acid]: the Ki was under 10 nM.
